Test results published in US5331094A, “Purified active somatostatin receptor” (American Cyanamid Company, priority 1992, dated 1994).
Each block holds one molecule with its values, some of them ahead of it. Bridge positions count the residues as written; N and C are the ends. Square brackets hold non-standard residues; d marks the D form. Peptide text beside a SMILES is read from it. * marks the point of attachment. Biotin = O=C1N[C@H]2[C@H](CS[C@H]2CCCCC(=O)*)N1; Tyr(3-I) = N[C@@H](Cc1ccc(O)c(I)c1)C(=O)O; Ahx = NCCCCCC(=O)O

Experiments:
SRIF receptor [1] = assay: Scatchard analysis of binding of [125I]-labelled SRIF analogs to GH4 C1 membranes; set-up: species or system rat; conditions: GH4 C1 membranes (FIG. 2), read-out: dissociation constant (KD)
Protocol: 1. Standard Binding Assays--Binding assays are done in a binding buffer containing 50 mM HEPES (pH 7.4), 0.5% BSA and 5 mM MgCl2. The standard assay for [^125 I]SRIF analog binding to GH4 C1 membranes, done in 96 well microtiter plates (Dynataech Immulon II Removawell plates), is carried out as follows: 1. Radioligand is diluted in binding buffer+ PMSF/Baci to the desired cpm per vol. of 50 μl and then 50 μl aliquots are added to the wells. For non-specific binding samples, 5 μl of 40 μM cold S14 is also added per well. 2. Binding is initiated by adding 150 μl per well of membrane diluted to the desired concentration (10-30 ug membrane protein/well) in binding buffer+ PMSF/Baci. Plates are then covered with Linbro mylar plate sealers (Flow Labs) and placed on a Dynatech Microshaker II and binding is allowed to proceed at room temperature for 1-2 hours. Binding is stopped by centrifuging the plate for 15 minutes at 2,000×g. The supernatants are dumped off and membrane pellets washed once by addition of 200 μl of ice cold binding buffer, brief shaking and recentrifugation. Finally the individual wells are placed in 12×75 mm tubes and counted in an LKB Gammamaster counter (78% efficiency). Specific binding by this method is identical to that measured when free ligand is removed by rapid (3-5 seconds) filtration and washing on polyethyleneimine-coated glass fiber filters.
Because Bio-C6-S14, Bio-C12-S14 and Bio-S28 all contain tyrosine residues, it is possible to prepare their [^125 I] labelled analogs and carry out Scatchard analyses of their binding affinities relative to [^125 I]Tyr11-S14 (FIG. 2). As shown in the figure, the [^125 I]-labelled peptides fall in the same order of potency as their non-labelled forms. The dissociation constants (KDs) and relative binding affinities are [^125 I]Tyr11-S14 (0.1 nM)>[^125 I]Bio-S28 (0.2 nM)>[^125I]Bio-6C-S14 (0.3 nM)>[^125 I]Bio-12C-S14 (0.4 nM).

SRIF receptor [2] = assay: Binding of [125I]Bio-SRIF analogs to GH4 C1 membranes (CPM bound); set-up: species or system rat; conditions: for CPM bound/mg membrane protein (total): after the binding step; for CPM bound/mg membrane protein (non-specific): in the presence of 1 uM cold S14
Protocol: 3. Chemical cross-linking of radioligand with receptor is done after a binding step identical to the standard assay. However, the wash step is done with binding buffer minus BSA to reduce the possibility of non-specific cross-linking of radioligand with BSA. The cross-linking step is carried out as described below.
(§1) To compare the three biotinyl-SRIF analogs in terms of binding to streptavidin, the following experiment is done. [^125 I]Bio-SRIF analogs are bound to GH4 C1 membranes as described ("Methods: Receptor Binding Methods, 3"). All radioligands are at a concentration of […] cpm/ml. For each radioligand, a control for non-specific binding was done in the presence of 1 uM cold S14. CPM bound/mg membrane protein after the binding step are as follows: [^125 I]Bio-6C-S14=755,020 (total) and 43,361 (non-specific); [^125 I]Bio-12C=S14=633,134 (total) and 39,538 (nonspecific); [^125 I]Bio-S28=1,065,512 (total) and 35,049 (nonspecific). The membrane pellets are solubilized in solubilization buffer containing 0.15% deoxycholate:lysolecithin and 0.2 mM MgCl2 as described ("Methods: Membrane Solubilization"). […] One ml samples of solubilized membranes are incubated with 0.05 ml vols of streptavidin-agarose at 4°-10° C. on a tube rotator for the times shown. Non-specific binding samples are not done due to the low levels of non-specific binding. At the times shown, the […] beads are spun down and 100 ul samples of supernatant are counted. The cpm are compared to initial cpm in the sample and % binding to SA is calculated from this. Also, it should be noted that binding of cpm from the supernatant is considered to parallel the binding of R:L complex. Several observations confirm that this is a valid assumption.

Immobilized Streptavidin = target: T1, Immobilized Streptavidin (Streptomyces avidinii, UniProt P22629); assay: Binding of [125I]-labelled biotinyl-SRIFs (solubilized R:L complex) to immobilized streptavidin; conditions: for Initial CPM: 100 ul of initial 100,000 x g supernatant containing soluble R:L complex; for CPM (non-bound), 1 hour: 100 ul supernatant after 1 hour incubation with SA-agarose; for CPM (non-bound), 1 hour / CPM (non-bound), 3 hours: 4-10 C; for CPM (non-bound), 3 hours: 100 ul supernatant after 3 hours incubation with SA-agarose; for % Binding of Radioligand to SA-Agarose, 1 hour, % Bound: 1 hour incubation with SA-agarose; for % Binding of Radioligand to SA-Agarose, 3 hours, % Bound: 3 hours incubation with SA-agarose
T1 construct: purchased Pierce Chemical Co
Protocol: as §1

SRIF receptor [3] = assay: Lectin affinity binding (WGA-agarose) of solubilized receptor:[125I]Tyr11-S14 complex; set-up: species or system rat; conditions: for A/B, GFB/PEI filters: Recovery of soluble R:L complex
Protocol: 4. Larger scale binding assays to obtain membrane pellets for studies on solubilization of receptor: ligand complex and for receptor purification are also carried out. These are identical to the standard assays except that: (a) Binding is carried out in polypropylene tubes in volumes from 1-250 ml, (b) Concentration of membrane protein is always 0.5 mg/ml, (c) For receptor purification, BSA concentration in the binding buffer is reduced to 0.25% and the wash step is done with binding buffer without BSA. This is to reduce BSA contamination of the purified receptor.
H. Assay of Solubilized Receptors--After binding of [^125 I]SRIF analogs and solubilization of the membranes with detergent, the intact R:L complex could be assayed by four different methods (all carried out on ice or in a cold room at 4°-10° C.): (1) Column chromatography (Knuhtsen et al., Biochem. J. 254:641-647, 1988). Sephadex G-50 columns (8×250 mm) are equilibrated with solubilization buffer containing detergent at the concentration used to solubilize membranes and 1 mg/ml bovine serum albumin. 0.2-0.5 ml samples of solubilized membranes are applied to the columns and eluted at a flow rate of about 0.7 ml/minute. 0.18 ml samples are collected. Radioactivity is determined in a gamma counter as described under "Receptor Binding Methods". Void volumes of the columns are determined by the elution volume of blue dextran. Radioactivity eluting in the void volume (>50,000 MW) was considered bound to protein. Radioactivity eluting later, at the same volume as free [^125 I]SRIF, is considered non-bound. (2) Polyethyleneglycol precipitation (Cuatrecasas, PNAS USA 69:318-322, 1972) For a 100 ul sample of solubilized membranes in a 12×75 mm polypropylene tube, 0.5 ml of 1% (w/v) bovine gamma globulin (Sigma) in 0.1M sodium phosphate buffer is added, followed by 0.5 ml of 25% (w/v) polyethyleneglycol (Sigma) and mixing. The mixture is held on ice for 15 minutes. Then 3 ml of 0.1M sodium phosphate (pH 7.4) is added per sample and the samples are rapidly (1-3 seconds) filtered over Whatman GF/B glass fiber filters and washed with 4 ml of the phosphate buffer. PEG precipitated SRIF receptor:[^125 I]SRIF complex is determined by gamma counting of the filters. (3) GFB/PEI filter binding (Bruns et al., Analytical Biochem. 132:74-81, 1983). Whatman GF/B glass fiber filters are soaked in 0.3% polyethyleneimine (PEI, Sigma) for 3 hours. 25-100 ul samples of solubilized membranes are replaced in 12×75 mm polypropylene tubes. Then 4 ml of solubilization buffer (without detergent) is added per sample and the samples are immediately filtered through the GFB/PEI filters (1-3 seconds) and washed with 4 ml of solubilization buffer. CPM of SRIF receptor:[^125 I]SRIF complex adsorbed to filters are determined by gamma counting. (4) Charcoal/Dextran (Paul and Said, Peptides 7[Suppl. 1]:147-149, 1986). 0.5 gm of Dextran T70 (Pharmacia) is dissolved in 1 liter of water and then 5 gm of activated charcoal (Norit A, alkaline; Fisher Scientific) is added. The suspension is stirred for 10 minutes at room temperature and then stored at 4° C. until use. To measure R:L complex, 4 parts by volume of charcoal/dextran suspension are added to 1 part by volume of solubilized membrane. The samples are mixed and held on ice for 2 minutes and then centrifuged for 2 minutes at 11,000×g in a Beckman microfuge. Free radioligand is adsorbed charcoal/dextran and is discarded with the pellet. SRIF receptor:[^125 I]SRIF complex remain in the supernatant and is determined by gamma counting.
A. Solubilized Receptor: [^125 I]Tyr11-S14 Complex-Binding of [^125 I][…] to GH4 C1 membranes is carried out as in "Receptor Binding Methods. 4". Binding incubations contain 0.5 mg/ml membrane protein and 6×10^6 cpm/ml of [^125 I]Tyr11-S14. Solubilization of membranes in 0.15% deoxycholate:lysolecithin is also as previous described. […]

[4] = Sample: 100,000 x g supernatant
[5] = Sample: Eluted from WGA-agarose
[6] = Sample: Non-bound to WGA-agarose

Compound: C[C@H](NC(=O)CCCCCNC(=O)CCCC[C@@H]1SC[C@@H]2NC(=O)N[C@@H]21)C(=O)NCC(=O)N[C@H]1CSSC[C@@H](C(=O)O)NC(=O)[C@H](CO)NC(=O)[C@H]([C@@H](C)O)NC(=O)[C@H](Cc2ccc(O)c(I)c2)NC(=O)[C@H]([C@@H](C)O)NC(=O)[C@H](CCCCN)NC(=O)[C@H](Cc2c[nH]c3ccccc23)NC(=O)[C@H](Cc2ccccc2)NC(=O)[C@H](Cc2ccccc2)NC(=O)[C@H](CC(N)=O)NC(=O)[C@H](CCCCN)NC1=O [[^125 I]Bio-6C-S14] ({Biotin-Ahx}-AGCKNFFWKT[Tyr(3-I)]TSC-OH; disulfide 3-14)
- Kd (SRIF receptor [1]): 0.3 nM
- CPM bound/mg membrane protein (total) (SRIF receptor [2]): 755,020 CPM bound/mg membrane protein
- CPM bound/mg membrane protein (non-specific) (SRIF receptor [2]): 43,361 CPM bound/mg membrane protein
- Initial CPM (Immobilized Streptavidin): 63,490 CPM
- CPM (non-bound), 1 hour (Immobilized Streptavidin): 28,381 CPM
- CPM (non-bound), 3 hours (Immobilized Streptavidin): 16,228 CPM
- % Binding of Radioligand to SA-Agarose, 1 hour, % Bound (Immobilized Streptavidin): 55%
- % Binding of Radioligand to SA-Agarose, 3 hours, % Bound (Immobilized Streptavidin): 74%

Compound: C[C@H](NC(=O)CCCCCNC(=O)CCCCCNC(=O)CCCC[C@@H]1SC[C@@H]2NC(=O)N[C@@H]21)C(=O)NCC(=O)N[C@H]1CSSC[C@@H](C(=O)O)NC(=O)[C@H](CO)NC(=O)[C@H]([C@@H](C)O)NC(=O)[C@H](Cc2ccc(O)c(I)c2)NC(=O)[C@H]([C@@H](C)O)NC(=O)[C@H](CCCCN)NC(=O)[C@H](Cc2c[nH]c3ccccc23)NC(=O)[C@H](Cc2ccccc2)NC(=O)[C@H](Cc2ccccc2)NC(=O)[C@H](CC(N)=O)NC(=O)[C@H](CCCCN)NC1=O [[^125 I]Bio-12C-S14] ({Biotin-Ahx-Ahx}-AGCKNFFWKT[Tyr(3-I)]TSC-OH; disulfide 3-14 (inferred); C-terminus assumed)
- Kd (SRIF receptor [1]): 0.4 nM
- CPM bound/mg membrane protein (total) (SRIF receptor [2]): 633,134 CPM bound/mg membrane protein
- CPM bound/mg membrane protein (non-specific) (SRIF receptor [2]): 39,538 CPM bound/mg membrane protein
- Initial CPM (Immobilized Streptavidin): 54,344 CPM
- CPM (non-bound), 1 hour (Immobilized Streptavidin): 23,391 CPM
- CPM (non-bound), 3 hours (Immobilized Streptavidin): 13,071 CPM
- % Binding of Radioligand to SA-Agarose, 1 hour, % Bound (Immobilized Streptavidin): 57%
- % Binding of Radioligand to SA-Agarose, 3 hours, % Bound (Immobilized Streptavidin): 76%

- Kd (SRIF receptor [1]): 0.1 nM
- A/B, GFB/PEI filters (SRIF receptor [3]; 100,000 x g supernatant): 11.3
- A/B, GFB/PEI filters (SRIF receptor [3]; Eluted from WGA-agarose): 33.7
- A/B, GFB/PEI filters (SRIF receptor [3]; Non-bound to WGA-agarose): 2.9
- A/B (total/non-specific) (SRIF receptor [3]; [4]): 8.2
- CPM of [125I]Tyr11-S14, A. Total (SRIF receptor [3]; [4]): 104,420 CPM
- CPM of [125I]Tyr11-S14, B. Non-Specific (SRIF receptor [3]; [4]): 12,756 CPM
- A/B (total/non-specific) (SRIF receptor [3]; Sample: Bound to WGA-agarose): 22.1
- CPM of [125I]Tyr11-S14, A. Total (SRIF receptor [3]; Sample: Bound to WGA-agarose): 69,889 CPM
- CPM of [125I]Tyr11-S14, B. Non-Specific (SRIF receptor [3]; Sample: Bound to WGA-agarose): 3,157 CPM
- A/B (total/non-specific) (SRIF receptor [3]; [5]): 23.0
- CPM of [125I]Tyr11-S14, A. Total (SRIF receptor [3]; [5]): 58,925 CPM
- CPM of [125I]Tyr11-S14, B. Non-Specific (SRIF receptor [3]; [5]): 2,524 CPM
- A/B (total/non-specific) (SRIF receptor [3]; Sample: Membranes): 5.3
- CPM of [125I]Tyr11-S14, A. Total (SRIF receptor [3]; Sample: Membranes): 151,848 CPM
- CPM of [125I]Tyr11-S14, B. Non-Specific (SRIF receptor [3]; Sample: Membranes): 28,812 CPM
- A/B (total/non-specific) (SRIF receptor [3]; [6]): 2.4
- CPM of [125I]Tyr11-S14, A. Total (SRIF receptor [3]; [6]): 23,112 CPM
- CPM of [125I]Tyr11-S14, B. Non-Specific (SRIF receptor [3]; [6]): 9,624 CPM
Compound: C[C@H](N)C(=O)NCC(=O)N[C@H]1CSSC[C@@H](C(=O)O)NC(=O)[C@H](CO)NC(=O)[C@H]([C@@H](C)O)NC(=O)[C@H](Cc2ccc(O)c(I)c2)NC(=O)[C@H]([C@@H](C)O)NC(=O)[C@H](CCCCN)NC(=O)[C@H](Cc2c[nH]c3ccccc23)NC(=O)[C@H](Cc2ccccc2)NC(=O)[C@H](Cc2ccccc2)NC(=O)[C@H](CC(N)=O)NC(=O)[C@H](CCCCN)NC1=O [[^125 I]Tyr11-S14] (H-AGCKNFFWKT[Tyr(3-I)]TSC-OH; disulfide 3-14 (inferred); N-terminus and C-terminus assumed)
